Measured values: patent US20250186405A1, “Compound For Use In Treating Narcolepsy” (Alkermes, Inc., priority 2023, published 2025)

Tested on: subjects with narcolepsy type-2 (NT2)
Assay: Part 5 POC NT2: treatment-emergent adverse events, single doses, crossover
Details: N = 9
Experimental: Part 5 consisted of a 4-way, 4-period crossover study design in approximately 8 subjects (2 subjects per sequence; minimum of 4 subjects with 1 subject per sequence). Subjects were randomized 1:1:1:1 to 1 of 4 sequences with 4 treatment periods (3 single doses of Compound A and 1 dose of matching placebo), with up to 48 hours of washout between treatments. Treatments were administered under fasted state.
Subjects were randomized to 1 of 4 sequences. […] In each period, subjects were administered a single dose of study drug (either Compound A or placebo) as per the randomization schedule with approximately 240 mL of noncarbonated water following overnight fasting. No food was given for at least 3 hours after dose administration (i.e., fast can be broken after the 3-hour PK time point is collected). Water was allowed ad libitum except for 1 hour before and 1 hour after study drug administration. Safety assessments including AEs, safety ECGs, vital signs, and clinical laboratory tests were conducted, and plasma PK samples were collected. Furthermore, BP and HR were monitored once every hour for 12 hours on the dosing days.
Adverse events (AEs) and serious adverse events (SAEs) were monitored continuously until the completion of the study.
Nine subjects with NT2 were dosed in Part 5 (POC in NT2) in a randomized 4-sequence 4-period cross-over design. Each dose of Compound A or matching placebo was separated by 2 days. A 14-day washout period preceded the treatment period and included discontinuation of narcolepsy medications. All 9 subjects underwent the washout period and received at least one dose of Compound A. All subjects completed all 4-way randomized crossover periods.

SMILES: CS(=O)(=O)N[C@H]1CCCN2C(=O)COc3ccccc3C3CCC(CC3)OCC12 (stereo partly drawn) [Compound A, N-[(4S,4aR,7α,10α)-1,2,3,4,4a,5,7,8,9,10,16,17-dodecahydro-17-oxo-7,10-ethanopyrido[1,2-d][1,7,4]benzodioxaazacyclotridecin-4-yl]methanesulfonamide]
- AE Leading to Study Drug Discontinuation (5 mg single dose): 0 n (%)
- Any SAEs (5 mg single dose): 0 n (%)
- Any TEAE (5 mg single dose): 3 (33.3) n (%)
- Death (5 mg single dose): 0 n (%)
- Drug Related TEAE by Preferred Term: Altered state of consciousness (5 mg single dose): 0 n (%)
- Drug Related TEAE by Preferred Term: Dizziness (5 mg single dose): 0 n (%)
- Drug Related TEAE by Preferred Term: Dizziness postural (5 mg single dose): 0 n (%)
- Drug Related TEAE by Preferred Term: Feeling jittery (5 mg single dose): 0 n (%)
- Drug Related TEAE by Preferred Term: Headache (5 mg single dose): 0 n (%)
- Drug Related TEAE by Preferred Term: Initial insomnia (5 mg single dose): 1 (11.1) n (%)
- Drug Related TEAE by Preferred Term: Insomnia (5 mg single dose): 0 n (%)
- Drug Related TEAE by Preferred Term: Photophobia (5 mg single dose): 0 n (%)
- Drug Related TEAE by Preferred Term: Pollakiuria (5 mg single dose): 0 n (%)
- Drug Related TEAE by Preferred Term: Tachycardia (5 mg single dose): 0 n (%)
- Drug Related TEAE by Preferred Term: Urinary incontinence (5 mg single dose): 0 n (%)
- Subjects with at least one TEAE (5 mg single dose): 3 (33.3) n (%)
- Subjects with at least one treatment-related TEAE (5 mg single dose): 1 (11.1) n (%)
- TEAE by Highest Relationship: Not Related (5 mg single dose): 2 (22.2) n (%)
- TEAE by Highest Relationship: Related (5 mg single dose): 1 (11.1) n (%)
- TEAE by Highest Severity: Mild (5 mg single dose): 3 (33.3) n (%)
- TEAE by Highest Severity: Moderate (5 mg single dose): 0 n (%)
- TEAE by Highest Severity: Severe (5 mg single dose): 0 n (%)
- TEAE by Preferred Term: Altered state of consciousness (5 mg single dose): 0 n (%)
- TEAE by Preferred Term: Constipation (5 mg single dose): 0 n (%)
- TEAE by Preferred Term: Contusion (5 mg single dose): 0 n (%)
- TEAE by Preferred Term: Dizziness (5 mg single dose): 0 n (%)
- TEAE by Preferred Term: Dizziness postural (5 mg single dose): 0 n (%)
- TEAE by Preferred Term: Dry skin (5 mg single dose): 1 (11.1) n (%)
- TEAE by Preferred Term: Feeling jittery (5 mg single dose): 0 n (%)
- TEAE by Preferred Term: Headache (5 mg single dose): 0 n (%)
- TEAE by Preferred Term: Initial insomnia (5 mg single dose): 1 (11.1) n (%)
- TEAE by Preferred Term: Insomnia (5 mg single dose): 0 n (%)
- TEAE by Preferred Term: Nasal dryness (5 mg single dose): 0 n (%)
- TEAE by Preferred Term: Nausea (5 mg single dose): 0 n (%)
- TEAE by Preferred Term: Photophobia (5 mg single dose): 0 n (%)
- TEAE by Preferred Term: Pollakiuria (5 mg single dose): 0 n (%)
- TEAE by Preferred Term: Rash (5 mg single dose): 0 n (%)
- TEAE by Preferred Term: Skin lesion (5 mg single dose): 1 (11.1) n (%)
- TEAE by Preferred Term: Tachycardia (5 mg single dose): 0 n (%)
- TEAE by Preferred Term: Urinary incontinence (5 mg single dose): 0 n (%)
- AE Leading to Study Drug Discontinuation (12 mg single dose): 0 n (%)
- Any SAEs (12 mg single dose): 0 n (%)
- Any TEAE (12 mg single dose): 4 (44.4) n (%)
- Death (12 mg single dose): 0 n (%)
- Drug Related TEAE by Preferred Term: Altered state of consciousness (12 mg single dose): 0 n (%)
- Drug Related TEAE by Preferred Term: Dizziness (12 mg single dose): 0 n (%)
- Drug Related TEAE by Preferred Term: Dizziness postural (12 mg single dose): 0 n (%)
- Drug Related TEAE by Preferred Term: Feeling jittery (12 mg single dose): 0 n (%)
- Drug Related TEAE by Preferred Term: Headache (12 mg single dose): 0 n (%)
- Drug Related TEAE by Preferred Term: Initial insomnia (12 mg single dose): 0 n (%)
- Drug Related TEAE by Preferred Term: Insomnia (12 mg single dose): 0 n (%)
- Drug Related TEAE by Preferred Term: Photophobia (12 mg single dose): 0 n (%)
- Drug Related TEAE by Preferred Term: Pollakiuria (12 mg single dose): 1 (1.1) n (%)
- Drug Related TEAE by Preferred Term: Tachycardia (12 mg single dose): 0 n (%)
- Drug Related TEAE by Preferred Term: Urinary incontinence (12 mg single dose): 0 n (%)
- Subjects with at least one TEAE (12 mg single dose): 4 (44.4) n (%)
- Subjects with at least one treatment-related TEAE (12 mg single dose): 1 (11.1) n (%)
- TEAE by Highest Relationship: Not Related (12 mg single dose): 3 (33.3) n (%)
- TEAE by Highest Relationship: Related (12 mg single dose): 1 (11.1) n (%)
- TEAE by Highest Severity: Mild (12 mg single dose): 4 (44.4) n (%)
- TEAE by Highest Severity: Moderate (12 mg single dose): 0 n (%)
- TEAE by Highest Severity: Severe (12 mg single dose): 0 n (%)
- TEAE by Preferred Term: Altered state of consciousness (12 mg single dose): 0 n (%)
- TEAE by Preferred Term: Constipation (12 mg single dose): 1 (11.1) n (%)
- TEAE by Preferred Term: Contusion (12 mg single dose): 0 n (%)
- TEAE by Preferred Term: Dizziness (12 mg single dose): 0 n (%)
- TEAE by Preferred Term: Dizziness postural (12 mg single dose): 0 n (%)
- TEAE by Preferred Term: Dry skin (12 mg single dose): 0 n (%)
- TEAE by Preferred Term: Feeling jittery (12 mg single dose): 0 n (%)
- TEAE by Preferred Term: Headache (12 mg single dose): 0 n (%)
- TEAE by Preferred Term: Initial insomnia (12 mg single dose): 0 n (%)
- TEAE by Preferred Term: Insomnia (12 mg single dose): 0 n (%)
- TEAE by Preferred Term: Nasal dryness (12 mg single dose): 0 n (%)
- TEAE by Preferred Term: Nausea (12 mg single dose): 1 (11.1) n (%)
- TEAE by Preferred Term: Photophobia (12 mg single dose): 0 n (%)
- TEAE by Preferred Term: Pollakiuria (12 mg single dose): 1 (11.1) n (%)
- TEAE by Preferred Term: Rash (12 mg single dose): 1 (11.1) n (%)
- TEAE by Preferred Term: Skin lesion (12 mg single dose): 0 n (%)
- TEAE by Preferred Term: Tachycardia (12 mg single dose): 0 n (%)
- TEAE by Preferred Term: Urinary incontinence (12 mg single dose): 0 n (%)
- AE Leading to Study Drug Discontinuation (25 mg single dose): 0 n (%)
